What was measured:
[1] = test system: intracellular phosphorylated tyrosine (Her receptor phosphorylation); test: eTag assay of formalin fixed paraffin embedded cell pellets for receptor phosphorylation; format: cell-based, human; conditions: 100 nM EGF vs non-stimulated
Experimental: In this example, model fixed tissues made from pelleted cell lines were assayed for the presence of Her receptor dimers. The assay design for heterodimers was essentially the same as that described in FIG. 4A, with exceptions as noted below. That is, four components are employed: (i) a cleaving probe comprising a biotinylated monoclonal antibody conjugated to a cleavage-inducing moiety (in this example, a photosensitizer-derivatized streptavidin, as illustrated in FIG. 3E) and specific for one of the receptors of the dimer, (ii) a monoclonal antibody derivatized with a first molecular tag and specific for the same receptor as the cleaving probe, (iii) a monoclonal antibody derivatized with a second molecular tag and specific for the receptor opposite to that the cleaving probe is specific for, and (iv) a monoclonal antibody derivatized with a third molecular tag and specific for an intracellular phosphorylated tyrosine. The assay design for homodimers was essentially the same as that described in FIG. 1D, with exceptions as noted below.
In each case, model fixed tissues were prepared as follows: cells grown on tissue culture plates were stimulated with either EGF or HRG as described in the prior examples, after which they were washed and removed by scrapping. […]

Her2-Her3 heterodimers = target: T1, Her2-Her3 heterodimers (Homo sapiens, UniProt P04626+P21860); test: eTag assay of cell lysates for Her2-Her3 heterodimers after ligand stimulation; format: cell-based; conditions: MCF-7 cells, increasing ligand concentrations (0-100 nM), 10 minutes at 37° C.
T1 construct: endogenous in cells; host or cells: MCF-7
Experimental: Measurements are made using three binding compounds and a cleaving probe as described below.
• 1. Serum-starve breast cancer cell line culture overnight before use. • 2. […] Aspirate culture media, transfer onto ice, and add lysis buffer to lyse cells in situ. • 4. Scrape and transfer lysate to microfuge tube. Incubate on ice for 30 min. Microfuge at 14,000 rpm, 4° C., for 10 min. (Centrifugation is optional.) • 5. Collect supernatants as lysates and aliquot for storage at −80° C. until use. Assay: Assay design: As illustrated diagrammatically in FIG. 4A, Her2-Her3 heterodimers (900) are quantified ratiometrically based on the binding of cleaving probe (902) and binding compounds (904), (906), and (908). A photosensitizer indicated by “PS” is attached to cleaving probe (902) via an avidin-biotin linkage, and binding compounds (904), (906), and (908) are labeled with molecular tags Pro4, Pro10, and Pro 11, respectively. Binding compound (904) is specific for a phosphorylation site on Her3. The total assay volume is 40 ul. The lysate volume is adjusted to 30 ul with lysis buffer. […]
Data Analysis: • 3. Normalize relative fluorescence units (RFU) signal of each molecular tag against CE reference standard A315 (a fluorescein-derivatized deoxyadenosine monophosphate that has known peak position relative to molecular tags from the assay upon electrophoretic separation). • 4. […]

Her1 phosphorylation = test: eTag assay of cell lysates for Her1 receptor phosphorylation; format: cell-based, human; conditions: BT-20 cells, increasing EGF concentration
Experimental: Sample preparation was carried out essentially as described in Example 2.
Assay design: A monoclonal antibody specific to the receptor is separately conjugated with either a molecular tag or biotin (that is then linked to a photosensitizer via an avidin bridge), so that the cleaving probe and a binding compound compete to bind to the same epitope in this example. Another binding compound is used that consists of a second anibody recognizing an […] epitope on the receptor, so that a ratiometric signal can be generated as a measure of homodimerization. The signal derived from the second antibody also provides a measure of the total amount of receptor in a sample. The total amount of receptor is determined in a separate assay well. Receptor phosphorylation can be quantified together with either homodimerization or total receptor amount.
Procedure: The assay volume is 40 ul and the general procedure is similar to that of Example 2. Two assay wells, A and B, are set up for each sample to quantify homodimerization and total amount of receptor separately. […]

EGF: epidermal growth factor, ligand used to stimulate cell lines
Her receptor phosphorylation ([1]; fixed pellets of 22Rv1 cells): up-regulation
intracellular phosphorylation ([1]; fixed pellets of MDA-MB468 cells): increases
quantity of Her2-Her3 heterodimers (Her2-Her3 heterodimers): essentially no change
quantity of Her1 phosphorylation (Her1 phosphorylation): increases
